Measured values: ChEMBL document CHEMBL2151007, “Total Syntheses and Cytotoxicity of (R)- and (S)-Boehmeriasin A” (ACS Med Chem Lett, 2011)

What was measured:
MCF7 [1] = assay: Cytotoxicity against human MCF7 cells; type: functional
[2] = Cytotoxicity against human NCI-ADR-RES cells after 48 hrs by Alamar blue assay; type: functional, cell-based
COLO 205 [3] = assay: Cytotoxicity against human COLO205 cells; type: functional
COLO 205 [4] = assay: Cytotoxicity against human COLO205 cells after 48 hrs by Alamar blue assay; type: functional, cell-based; settings: COLO 205, 48 h
MCF7 [5] = assay: Cytotoxicity against human MCF7 cells after 48 hrs by Alamar blue assay; type: functional, cell-based; settings: MCF7, 48 h

SMILES | GI50 (MCF7 [1]) | IC50 [2] | GI50 (COLO 205 [3]) | IC50 (COLO 205 [4]) | IC50 (MCF7 [5])
COc1ccc2c3c(c4cc(OC)c(OC)cc4c2c1)CN1CCCC[C@@H]1C3 | 0.013 µM | 0.0367 µM | 0.0008 µM | 0.00418 µM | 0.0434 µM
COc1ccc2c3c(c4cc(OC)c(OC)cc4c2c1)CN1CCCC[C@H]1C3 | – | 0.434 µM | – | 0.103 µM | 0.0927 µM
CC(=O)O[C@H]1C(=O)[C@@]2(C)[C@H]([C@H](OC(=O)c3ccccc3)[C@]3(O)C[C@H](OC(=O)[C@H](O)[C@@H](NC(=O)c4ccccc4)c4ccccc4)C(C)=C1C3(C)C)[C@]1(OC(C)=O)CO[C@@H]1C[C@@H]2O [PACLITAXEL] | – | > 6.4 µM | – | 0.00331 µM | 0.00162 µM
